Read-outs that look alike come from different tables or passages of the source.
Key:
[1] = system: Feline Infectious Peritonitis Virus (FIPV) strain 79-1146; test: CPE antiviral assay for FIPV in Crandell-Rees Feline Kidney (CrFK) cells; assay type: cell-based
[2] = system: feline infectious peritonitis (FIP) virus; details: tissue culture and experimental cat infection studies; cited from earlier work
[3] = system: Porcine rotavirus A strain G9P7; test: Anti-porcine rotavirus immunofluorescent assay in MA-104 cells, strain G9P7; assay type: cell-based; details: MA104, 72 h, 3 days, immunofluorescence (FIG. 3b), read-out: EC50, replication of porcine rotavirus reduced by half, G9P7 strain
Procedure: (§1) Example 3 Anti-Porcine Rotavirus Activity of β-D-N(4)-Hydroxycytidine (NHC)
(§2) The anti-rotaviral activity of NHC against swine rotaviruses was tested in a cell culture-based assay. MA-104 (Rhesus monkey kidney tissue) cells were cultured and harvested according to standard procedures. The harvested MA-104 cell suspension was seeded onto 96-well plates (Greiner CELLSTAR® black, Sigma-Aldrich® M0562) in 200 μl/well M6B8 medium with 5% FBS at a density of 3×10^4 cells/mL. After 4 days of culturing, the monolayers were washed and the cells were infected with rotavirus A by adding 100 μl/well of 3630 TCID50/mL Porcine rotavirus A strain of serotype G5P7 (ATCC, VR-892) or strain G9P7 (MAH Worthington, USA). […] Replication inhibition of the Rotavirus A strains by NHC was quantified using a mouse-anti-Rotavirus A strain-specific monoclonal antibody (Ingenasa, #1JF10) followed by FITC-fluorochrome conjugated goat-anti-mouse antibody (Nordic) and DAPI (Sigma Aldrich) nuclear staining in an immunofluorescent assay. The extent of immunofluorescence was quantified as relative fluorescence units (RFU) at 485 nm excitation and 528 nm emission using a Cytation 5 cell imaging multimode reader and Gen5 software version 3.10 (Agilent BioTek). […]

[4] = system: cytopathic bovine viral diarrhea virus (BVDV) RNA; details: dose-dependent inhibition of BVDV RNA production; read-out: 90% effective concentration (EC90), production of cytopathic BVDV RNA; cited from earlier work
[5] = system: feline calicivirus (FCV) field strain 255; test: CrFK cell based antiviral activity against Feline Calicivirus (CPE, CellTiterGlo); details: 48 h, read-out: ED50 of NHC against Feline calicivirus
Procedure: Example 2 CrFK Cell Based Antiviral Activity of NHC Against Feline Calicivirus (FCV)
Monolayers of Crandell-Rees Feline Kidney (CrFK) cells grown in 96-well plates (Greiner Cat #655090) in 100 μl/well M6B8 medium supplemented with 5% FCS and 0.15% NaHCO3 at a density of 2×10^5 cells/ml were infected with feline calicivirus (FCV) field strain 255 at multiplicities of infection of 0.01 and 0.001. NHC was added in ⅓ serial dilutions to the infected cells to yield a test concentration range of from 10 μM to 0.000508 μM and cultures were incubated for up to 48 hours at 37° C. and 5% C02. The extent of viral replication was assessed by determining the degree of FCV-induced cytopathic effect (CPE) using the CellTiterGlo® Luminescent Cell Viability Assay (Promega Cat #G7571) by adding the reagent 1:1 (v/v) to the culture plates that have been equilibrated to room temperature for 30 minutes. Plates were incubated for 10 minutes at room temperature and subsequently read for luminescence in a Biotek Cytation5. The effective concentration of NHC that reduced FCV replication by 50% (EC50) was calculated in a 4-parameter nonlinear regression model using GraphPad Prism 8.

[6] = system: swine influenza virus strain A/swine/Belgium/113/2013 (H3N2); test: organism not typed; assay type: cell-based; details: MDCK, 24 h, read-out: EC50, replication of swine influenza virus reduced by half, H3N2 strain
[7] = system: swine influenza virus strain A/swine/MN/A01483170/2014 (H1N1 pdm); test: microbe, parasite or virus in culture; assay type: cell-based; details: H1N1, MDCK, in Sus scrofa, 24 h, read-out: EC50, replication of swine influenza virus reduced by half, H1N1pdm strain
[8] = system: bovine viral diarrhea virus (BVDV); details: BVDV virus yield; read-out: EC90, virus yield assays; cited from earlier work
[9] = system: Porcine rotavirus A strain of serotype G5P7; test: Anti-porcine rotavirus immunofluorescent assay in MA-104 cells, strain G5P7; assay type: cell-based; details: MA104, 72 h, read-out: EC50, replication of porcine rotavirus reduced by half, G5P7 strain
Procedure: as §1, §2

[10] = FIPV strain 79-1146 infected CRFK cells, 96 hrs, CPE by CellTiterGlo, read-out: EC 50

CC(C)C[C@H](NC(=O)OCc1ccccc1)C(=O)N[C@@H](CC1CCNC1=O)C(O)S(=O)(=O)O (stereo partly shown) [GC-376] showed an EC50 [1, 10] of 1820 to 3000 nM.

For N#C[C@@]1(c2ccc3c(N)ncnn23)O[C@H](CO)[C@@H](O)[C@H]1O [GS-441524], the “Inhibition of FIP virus (in words)” value [2] is given as “strongly inhibit”.

With C[C@@]1(O)[C@H](O)[C@@H](CO)O[C@H]1n1ccc2c(N)ncnc21 [MK-0608] the EC50 [1, 10] was > 30000 nM.

In the case of O=c1nc(NO)ccn1[C@@H]1O[C@H](CO)[C@@H](O)[C@H]1O [NHC, 1-((2R,3R,4S,5R)-3,4-dihydroxy-5-(hydroxymethyl)tetrahydrofuran-2-yl)-4-(hydroxyamino)pyrimidin-2(1H)-one], the EC50 [3] is listed as 1900 nM, the EC90 [4] is listed as 5.4 µM and the EC50 ([1]; Alphacoronavirus 1, FIPV strain 79-1146 infected CRFK cells, 96 hrs, CPE by CellTiterGlo, read-out: EC 50) is listed as 334 to 370 nM. For the same molecule, the “Antiviral dose response against FIPV infected feline kidney cells (in words)” value ([1]; FIG. 1, viral induced CPE) was “protective against viral induced CytoPathic Effect (CPE) in a dose dependent manner”, the EC50 [5] was 3.8 µM and the EC50 [6] was 1300 nM. For the same molecule, the EC50 [7] was 5.2 µM, the EC90 [8] was 2000 nM and the EC50 [9] was 2600 nM.

In the case of CCC(CC)COC(=O)[C@H](C)N[P@](=O)(OC[C@H]1O[C@@](C#N)(c2ccc3c(N)ncnn23)[C@H](O)[C@@H]1O)Oc1ccccc1 [Remdesivir], the EC50 ([1]; Alphacoronavirus 1, CRFK, 96 h) is reported as 735 to 970 nM.
